Source: paper PMC12794188, “Maternal–Fetal Transfer and Toxicokinetics of 2,2′,5,5′-Tetrachlorobiphenyl, [^14C]-PCB52, Following Intratracheal Administration” (Chemical Research in Toxicology, 2025)
Where “and” joins values, the source holds several entries; their conditions need not be identical. Equal entries are not always repeated. Where two headings read alike, the source gives them in different places.

Assays:
[1] = Metabolite extraction and analysis: parent PCB52 and metabolite fractions in tissues and urine after intratracheal [14C]-PCB52; assay type: in vivo, Sprague–Dawley rats; conditions: for PCB52 share of radioactivity over time / unmetabolized PCB52 share of radioactivity over time: over the 96 h period; for parent PCB52 share of radioactivity: maternal serum
Description: A complex mixture of confirmed and putative metabolites of PCBs has been reported in the literature. To quantify the metabolites of PCB52 in maternal serum, the developing fetus, liver, brain, lung, and adipose tissue in this study, we employed a series of liquid–liquid extractions with solvents of increasing polarity to separate phenolic, methyl sulfones, and glucuronate/sulfated metabolites. , Recovery experiments used available standards including parent PCB52, 4-OH-PCB52, 3-MeSO2-PCB52, and 4-MeSO2-PCB52 metabolites in biological samples. The levels of the parent compound PCB52 and its extractable metabolites in the samples were determined using a validated liquid scintillation counting method coupled with gas chromatography-electron capture detection (GC-ECD), following our previous protocol. , Individual extractable metabolite was separated using a series of liquid–liquid extractions, employing a graded array of solvents with incrementing polarity to facilitate the partitioning of the analytes according to their inherent lipophilic characteristics (Figure S4). Subsequently, individual fractions were classified into respective categories, including the parent PCB moiety, hydroxylated PCBs (OH-PCBs), methyl sulfonyl PCBs (MeSO2–PCBs), conjugated metabolites, and unextractable components.
Tissue samples (200–400 mg wet weight) were prepared for analysis through a two-step homogenization using 2 mL of hexane/acetone solvent (50% vol/vol). The resultant solution was centrifuged, and then the pellet underwent two successive extractions with 1.5 mL of dichloromethane (DCM), chloroform/methanol (50:50 vol/vol), methanol/water (50:50 vol/vol), and water, respectively. The supernatant from the DCM extraction contained hydroxylated metabolites, whereas the top fractions from the methanol/water extraction had conjugated PCB metabolites. The resultant supernatant from the hexane/acetone extraction was rinsed with Milli-Q water, then extracted with a 0.5 M potassium hydroxide (KOH) solution in 50% ethanol, and triple rinsed with 400 μL of hexane. The hydrophobic fraction was further purified by rinsing with 1 M hydrochloric acid (400 μL). Simultaneously, a plausible MeSO2–PCBs fraction was extracted with 500 μL of anhydrous DMSO, followed by triple hexane rinses (3 × 400 μL). The residual hydrophobic phase was quantified as native PCB52. The quantification of cold PCB52, OH-PCBs (as MeO-PCB derivatives), and MeSO2-PCBs standards in spiked samples was initially performed on a gas chromatograph (Agilent 6890N) equipped with a 63Ni μ-ECD detector and SLB-5MS capillary column (60 m × 0.25 mm I.D., 0.25 μm film thickness; Supelco, St Louis, MO). Subsequently, individual separated fractionation from [^14C]-PCB52-exposed tissue samples was transferred to a prepared scintillation vial, followed by the addition of 10 mL of cocktail solution and analysis by scintillation counter. Any quantifiable radioactivity in the residual pellet was treated as unextractable compounds.

[2] = Literature half-life of PCB52 following intravenous administration in male rats (Pu et al.); conditions: rat, in vivo, concentration–time data of Pu et al., read-out: half-life when Pu et al. data are fitted to a two-compartmental PK model
[3] = Pulmonary uptake, exhalation and excretion (mass balance) after intratracheal [14C]-PCB52; assay type: in vivo, Sprague–Dawley rats
Protocol: Female Sprague–Dawley rats (8 weeks old) weighing 237–269.7 g (mean = 247.5 g) (Envigo RMS, LLC, Indianapolis, IN) were used for this study. All animal experiments were performed following the protocols evaluated and approved by the University of Iowa Institutional Animal Care and Use Committee (approval number 3091097). After arrival, the animals were acclimated for 7 days. The animals were housed in a light and temperature-controlled environment with ad libitum access to food and water during quarantine and throughout the study. Timed pregnancy was achieved by harem mating. , Briefly, one male and two female rats were placed together in the evening and checked for vaginal plug the following day. If vaginal plug was present, the male was removed from the breeding cage, and the gestation day 0 (GD 0), 0-day post coitum was assigned. Pregnancies were confirmed by ultrasound scan at GD 9. The dams were exposed at GD 11 (±1 day) to capture the period of early organogenesis and hormonal function, which falls within week 3 of human embryonic development. ,− On the day of the experiment, pregnant rats were intratracheally administered an average of 40 μg (range, 35–45 μg) of [^14C]-PCB52 in 100 μL of exposure solution. Although the dose used in this study exceeded the tolerable daily intake (TDI) of PCBs for healthy individuals, which is 1.6 μg per day for an individual weighing 80 kg, the use of higher acute doses has been established in toxicological studies intended for risk assessment. The intratracheal instillation method was chosen for administering [^14C]-PCB52 to represent inhalation exposures, capture exhaled concentration, and efficiently utilize the limited availability of the cost-intensive radiolabeled PCB52. , Although inhalation exposure would better represent real-world exposures to airborne LC-PCBs, it would not allow us to accurately measure the amount of PCB52 exhaled into the air after exposure and is experimentally infeasible. […] All intratracheal instillations were done under light anesthesia, achieved using a 4% isoflurane concentration via a Fortec vaporizer (Cyprane, Keighley, UK). The animals recovered from anesthesia within 1 min. Subsequently, the animals were housed within a cylindrical glass chamber measuring 2 L in volume, equipped with glass drainage mechanisms to facilitate urine collection and a metallic screen to segregate urine from feces (as in Figure S1). Air was drawn from the chamber at 6.0 L/min through a cartridge containing the XAD-2 polymeric resin to capture any exhaled [^14C]-PCB52. For periods longer than 24 h postexposure, exposed dams were placed in a metabolic cage, which was fitted with a cartridge containing XAD-2 to capture exhaled [^14C]-PCB52 as in other end points.
Maternal blood, urine, and feces samples were collected immediately before and at 0.21, 1.67, 12, 24, 48, and 96 h after lung dosing. The exposed dams were euthanized using 4% isoflurane, followed by cervical dislocation and exsanguination via a cardiac puncture. Euthanasia was consistently performed during the light cycle. Dams’ fur was wiped and analyzed for radioactivity. Using the retro-orbital blood collection method, 0.5–1.5 mL ([…] of an exposed pregnant rat’s body weight) of blood sample was collected from each of the dams until the individual dams were necropsied for whole-body tissue harvesting. At the end of the exposure period, the chamber’s interior walls were rinsed separately with water and acetone/hexane (25 – 45 mL) and wiped to measure residues. From the collected whole blood samples, 100 μL were aliquoted into three vials each, and the remaining blood was allowed to clot at room temperature before being centrifuged to yield serum. The placentas, developing fetuses, and whole-body tissue samples were harvested immediately before exposure and at 0.21, 1.67, 12, 24, and 96 h postexposure. […]

[4] = design: method as in Pu et al.; conditions: ref Pu et al., cited from earlier work

SMILES: Clc1ccc(Cl)c(-c2cc(Cl)ccc2Cl)c1 [PCB52, 2,2′,5,5′-Tetrachlorobiphenyl]
- PCB52 share of radioactivity over time ([1]; adipose tissue): 66.0 to 96.8%
- unmetabolized PCB52 share of radioactivity over time ([1]; brain): 74.4 to 60.2%
- PCB52 share of radioactivity over time ([1]; fetal tissues): 54.1 to 27.7%
- unmetabolized PCB52 share of radioactivity over time ([1]; liver): 64.0 to 37.3%
- parent PCB52 share of radioactivity ([1]; 0.21 h): 69.4%
- parent PCB52 share of radioactivity ([1]; 96 h): 6.8%
- PCB52 share of radioactivity over time ([1]; placenta): 67.8 to 28.6%
- parent compound in urine ([1]; urine): no detectable parent compound
- half-life [2]: 36 to 48 h
- dose retained ([3]; after 96 h): 41.1%
- elimination through feces ([3]; at 96 h postexposure): 42.5%
- elimination through urine ([3]; at 96 h postexposure): 14.5%
- total elimination ([3]; at 96 h postexposure): 58.9%
- exhaled proportion of the administered dose ([3]; by 96 h postexposure): 1.33 ± 0.51%
- average lung uptake (administered dose distributed to the systemic circulation) ([3]; intratracheal administration): 99.4 ± 0.5% and 99.40 ± 0.51%
- half-life ([4]; intravenous administration in male rats): ~240 h
- half-life estimate ([4]; intravenous, male rats, measured only up to 72 h postdosing): 241 h
